From PubChem BioAssay AID270 (DTP/NCI, 2004)
Several values for one entry are separate records, joined by “and”; a condition that tells them apart may be missing. Identical values can stand only once. Results filed as inconclusive are left out.

System: BDF1 mice, s.c. Lewis lung carcinoma, T/C %
Test: NCI In Vivo Anticancer Drug Screen. Data for tumor model Lewis Lung Carcinoma (subcutaneous) in B6D2F1 (BDF1) mice
Summary of the method: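 Tumor-bearing mice were treated with test compound, and either survival or tumor size was recorded. Values are the treated-group measurement divided by that of the vehicle-treated control group.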

In the case of `N[C@H](C(=O)O)[C@@H]1CC(Cl)=NO1`, the T/C (endpoint: median survival time, dose: 2.5 mg/kg/injection, schedule: Q01DX005 (ip), vehicle: saline, higher = longer survival) is reported as 92 % of control, the T/C (endpoint: median survival time, dose: 5.0 mg/kg/injection, schedule: Q01DX005 (ip), vehicle: saline, higher = longer survival) is reported as 67 % of control and the T/C (endpoint: median survival time, dose: 10.0 mg/kg/injection, schedule: Q01DX005 (ip), vehicle: saline, higher = longer survival) is reported as 111 % of control. The T/C (endpoint: median survival time, dose: 20.0 mg/kg/injection, schedule: Q01DX005 (ip), vehicle: saline, higher = longer survival) was 62 % of control, the T/C (endpoint: median survival time, dose: 25.9 mg/kg/injection, schedule: Q04DX002 (ip), vehicle: saline, higher = longer survival) was 114 % of control and 121 % of control and the T/C (endpoint: median survival time, dose: 43.2 mg/kg/injection, schedule: Q04DX002 (ip), vehicle: saline, higher = longer survival) was 111 % of control and 112 % of control. For the same compound, the T/C (endpoint: median survival time, dose: 72.0 mg/kg/injection, schedule: Q04DX002 (ip), vehicle: saline, higher = longer survival) was 106 % of control and 107 % of control, the T/C (endpoint: median survival time, dose: 200.0 mg/kg/injection, schedule: Q04DX002 (ip), vehicle: saline, higher = longer survival) was 100 % of control and 102 % of control and the T/C (endpoint: median survival time, dose: 2.5 ml/mouse/injection, schedule: Q01DX005 (ip), vehicle: saline, higher = longer survival) was 92 % of control. For the same compound, the T/C (endpoint: median survival time, dose: 5.0 ml/mouse/injection, schedule: Q01DX005 (ip), vehicle: saline, higher = longer survival) was 68 % of control and the T/C (endpoint: median survival time, dose: 10.0 ml/mouse/injection, schedule: Q01DX005 (ip), vehicle: saline, higher = longer survival) was 108 % of control.
In the case of `CCOC(=O)[C@H]1CCC[C@@H](NC(=O)N(CCCl)N=O)C1`, the T/C (endpoint: median tumor weight (est.), dose: 20.0 mg/kg/injection, schedule: Q01DX001 (ip), vehicle: gum acacia, higher = larger tumour) is reported as 55 % of control and the T/C (endpoint: median tumor weight (est.), dose: 30.0 mg/kg/injection, schedule: Q01DX001 (ip), vehicle: gum acacia, higher = larger tumour) is reported as 34 % of control.
`Nc1ccc(OC(=O)Oc2ccc(N)cc2)cc1` was tested, and the T/C (endpoint: mean tumor weight, dose: 31.3 mg/kg/injection, schedule: Q01DX011 (ip), vehicle: saline, higher = larger tumour) was 60 % of control, the T/C (endpoint: mean tumor weight, dose: 62.5 mg/kg/injection, schedule: Q01DX011 (ip), vehicle: saline, higher = larger tumour) was 79 % of control and the T/C (endpoint: mean tumor weight, dose: 125.0 mg/kg/injection, schedule: Q01DX011 (ip), vehicle: saline, higher = larger tumour) was 49 % of control. For the same compound, the T/C (endpoint: mean tumor weight, dose: 250.0 mg/kg/injection, schedule: Q01DX011 (ip), vehicle: saline, higher = larger tumour) was 18 % of control.
In the case of `CCCC(=O)NC1=C(N2CC2)C(=O)C(NC(=O)CCC)=C(N2CC2)C1=O`, the T/C (endpoint: mean tumor weight, dose: 0.8 mg/kg/injection, schedule: Q01DX011 (ip), vehicle: other, higher = larger tumour) is reported as 81 % of control, the T/C (endpoint: mean tumor weight, dose: 1.5 mg/kg/injection, schedule: Q01DX011 (ip), vehicle: other, higher = larger tumour) is reported as 42 % of control and the T/C (endpoint: mean tumor weight, dose: 3.0 mg/kg/injection, schedule: Q01DX011 (ip), vehicle: other, higher = larger tumour) is reported as 28 % of control.
In the case of `CCOC(=O)C1CCC(NC(=O)N(CCCl)N=O)CC1` (configuration not stated), the T/C (endpoint: median survival time, dose: 8.6 mg/kg/injection, schedule: Q04DX004 (ip), vehicle: gum acacia, higher = longer survival) is reported as 155 % of control, the T/C (endpoint: median survival time, dose: 13.0 mg/kg/injection, schedule: Q04DX004 (ip), vehicle: gum acacia, higher = longer survival) is reported as 155 % of control and 168 % of control and 204 % of control and the T/C (endpoint: median survival time, dose: 15.0 mg/kg/injection, schedule: Q07DX002 (ip), vehicle: gum acacia, higher = longer survival) is reported as 413 % of control. For the same compound, the T/C (endpoint: median survival time, dose: 18.0 mg/kg/injection, schedule: Q04DX004 (ip), vehicle: gum acacia, higher = longer survival) was 176 % of control and 252 % of control, the T/C (endpoint: median survival time, dose: 20.0 mg/kg/injection, schedule: Q04DX004 (ip), vehicle: gum acacia, higher = longer survival) was 181 % of control and the T/C (endpoint: median survival time, dose: 21.0 mg/kg/injection, schedule: Q07DX002 (ip), vehicle: gum acacia, higher = longer survival) was 413 % of control. For the same compound, the T/C (endpoint: median survival time, dose: 22.0 mg/kg/injection, schedule: Q07DX002 (ip), vehicle: gum acacia, higher = longer survival) was 191 % of control, the T/C (endpoint: median survival time, dose: 24.0 mg/kg/injection, schedule: Q07DX002 (ip), vehicle: gum acacia, higher = longer survival) was 232 % of control and 245 % of control and the T/C (endpoint: median survival time, dose: 28.0 mg/kg/injection, schedule: Q07DX002 (ip), vehicle: gum acacia, higher = longer survival) was 184 % of control. The T/C (endpoint: median survival time, dose: 30.0 mg/kg/injection, schedule: Q01DX001 (ip), vehicle: gum acacia, higher = longer survival) was 157 % of control and 166 % of control and 187 % of control, the T/C (endpoint: median survival time, dose: 30.0 mg/kg/injection, schedule: Q04DX004 (ip), vehicle: gum acacia, higher = longer survival) was 70 % of control and the T/C (endpoint: median survival time, dose: 33.0 mg/kg/injection, schedule: Q07DX002 (ip), vehicle: gum acacia, higher = longer survival) was 88 % of control and 90 % of control. For the same compound, the T/C (endpoint: median tumor weight (est.), dose: 15.0 mg/kg/injection, schedule: Q01DX001 (ip), vehicle: gum acacia, higher = larger tumour) was 16 % of control and the T/C (endpoint: median tumor weight (est.), dose: 29.0 mg/kg/injection, schedule: Q01DX001 (ip), vehicle: gum acacia, higher = larger tumour) was 8 % of control.
In the case of `OC1c2cc(Cl)ccc2-c2c(Cl)cc(Cl)cc21` (configuration not stated), the T/C (endpoint: mean tumor weight, dose: 63.0 mg/kg/injection, schedule: Q01DX011 (ip), vehicle: carboxymethylcellulose (CMC), higher = larger tumour) is reported as 64 % of control, the T/C (endpoint: mean tumor weight, dose: 125.0 mg/kg/injection, schedule: Q01DX011 (ip), vehicle: carboxymethylcellulose (CMC), higher = larger tumour) is reported as 58 % of control and the T/C (endpoint: mean tumor weight, dose: 190.0 mg/kg/injection, schedule: Q01DX011 (ip), vehicle: carboxymethylcellulose (CMC), higher = larger tumour) is reported as 61 % of control.
In the case of `CCOP(=O)(CC(=O)NC(CC(=O)OC)C(=O)OC)OCC` (configuration not stated), the T/C (endpoint: median survival time, dose: 50.0 mg/kg/injection, schedule: Q01DX004 (ip), vehicle: saline, higher = longer survival) is reported as 110 % of control, the T/C (endpoint: median survival time, dose: 100.0 mg/kg/injection, schedule: Q01DX004 (ip), vehicle: saline, higher = longer survival) is reported as 120 % of control and the T/C (endpoint: median survival time, dose: 200.0 mg/kg/injection, schedule: Q01DX004 (ip), vehicle: saline, higher = longer survival) is reported as 116 % of control. The T/C (endpoint: median survival time, dose: 800.0 mg/kg/injection, schedule: Q01DX004 (ip), vehicle: saline, higher = longer survival) was 124 % of control and the T/C (endpoint: median survival time, dose: 1600.0 mg/kg/injection, schedule: Q01DX004 (ip), vehicle: saline, higher = longer survival) was 124 % of control.
